{"source": "patent US20100056497A1", "about": "“AMIDE DERIVATIVE” (DAINIPPON SUMITOMO PHARMA CO., LTD, priority 2007, published 2010)", "note": "Structures can show the parent of a compound that is named as a salt.", "data": [{"biological_target": "T1, Recombinant human renin (Homo sapiens, UniProt P00797)", "T1 sequence (P00797 67-406)": "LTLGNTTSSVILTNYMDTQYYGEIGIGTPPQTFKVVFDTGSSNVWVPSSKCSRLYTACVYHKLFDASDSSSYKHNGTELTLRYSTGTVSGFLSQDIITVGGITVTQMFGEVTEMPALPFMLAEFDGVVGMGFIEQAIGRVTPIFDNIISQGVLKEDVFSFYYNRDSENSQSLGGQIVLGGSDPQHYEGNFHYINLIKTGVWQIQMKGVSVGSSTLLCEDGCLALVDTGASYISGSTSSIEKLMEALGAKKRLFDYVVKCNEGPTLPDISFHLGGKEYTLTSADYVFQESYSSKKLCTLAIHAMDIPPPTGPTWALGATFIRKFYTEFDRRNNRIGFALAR", "assay": "In vitro renin inhibitory activity assay (fluorescence, FRET peptide substrate)", "assay_type": "biochemical", "conditions": "37° C., one hour, substrate 4 μM, pH 7.4", "experimental": "In Vitro Renin Inhibitory Activity Assay\nRecombinant human renin (50 ng) was reacted in 0.1M BEPES buffer (pH 7.4) containing 0.1M NaCl, 1 mM EDTA and 0.1 mg/mL BSA together with a substrate and a test compound at 37° C. for one hour. As the substrate, Arg-Glu(EDANS)-Ile-His-Pro-Phe-His-Leu-Val-Ile-His-Thr-Lys(DABCYL)-Arg or DABCYL-γ-Abu-Ile-His-Pro-Phe-His-Leu-Val-Ile-His-Thr-EDANS was added in such an amount so that the final concentration thereof became 4 μM. The elevated fluorescence intensity at the exciting wavelength 340 nm and the fluorescence wavelength 500 nm was measured by a fluorescence plate reader. The concentration of a test compound to be needed to inhibit an enzyme activity in the presence of a test compound in plural concentrations by 50% was calculated as an IC50 value.\nThe amino acid sequence disclosed in Seq ID:1 is an amino acid sequence used in the renin inhibitory activity assay.\nThe amino acid sequence disclosed in Seq ID:2 is an amino acid sequence used in the renin inhibitory activity assay.", "units": {"IC50": "nM"}, "values": [{"smiles": "CCOC(=O)C[C@H]1CC[C@@H](N(C(=O)c2ccc(OC)c(OCCCOC)c2)C(C)C)CN1", "note": "(racemic) [Example 14, Ethyl ((rac.)-(2R,5R)-5-{isopropyl[4-methoxy-3-(3-methoxypropoxy)benzoyl]-amino}piperidin-2-yl)acetate]", "IC50": 930}, {"smiles": "CCCN(CC1CC1)C(=O)C[C@H]1CC[C@@H](N(C(=O)c2ccc(OC)c(OCCCOC)c2)C(C)C)CN1", "note": "(racemic) [Example 20, N-((rac.)-(3R,6R)-6-{2-[(Cyclopropylmethyl)(propyl)amino]-2-oxoethyl}piperidin-3-yl)-N-isopropyl-4-methoxy-3-(3-methoxypropoxy)benzamide hydrochloride]", "IC50": 420}, {"smiles": "CCN(C(=O)C[C@H]1CC[C@@H](N(C(=O)c2ccc(OC)c(OCCCOC)c2)C(C)C)CN1)C(C)C", "note": "(racemic) [Example 22, N-((rac.)-(3R,6R)-6-{2-[Ethyl(isopropyl)amino]-2-oxoethyl}piperidin-3-yl)-N-isopropyl-4-methoxy-3-(3-methoxypropoxy)benzamide hydrochloride]", "IC50": 480}, {"smiles": "COCCCOc1cc(C(=O)N(C(C)C)[C@@H]2CC[C@@H](CCN(C(=O)Cc3ccccc3)C3CC3)NC2)ccc1OC", "note": "(racemic) [Example 23, N-((rac.)-(3R,6S)-6-{2-[Cyclopropyl(phenylacetyl)amino]ethyl}piperidin-3-yl)-N-isopropyl-4-methoxy-3-(3-methoxypropoxy)benzamide hydrochloride]", "IC50": 330}, {"smiles": "COCCCOc1cc(C(=O)N(C(C)C)C2CNC[C@@H](COC(=O)NCCc3ccccc3)C2)ccc1OC", "note": "(mixture of isomers) [Example 31, ((rac.)-(3S,5R)-5-{Isopropyl[4-methoxy-3-(3-methoxypropoxy)benzoyl]amino}-piperidin-3-yl)methyl(2-phenylethyl)carbamate hydrochloride]", "IC50": 240}, {"smiles": "COCCCOc1cc(C(=O)N(C(C)C)C2CNC[C@@H](C(=O)N(C)Cc3ccccc3)C2)ccc1OC", "note": "(mixture of isomers) [Example 41, (rac.)-(3S,5R)-N-Benzyl-5-{isopropy[4-methoxy-3-(3-methoxyproroxy)benzoyl]-amino}-N-methylpiperidine-3-carboxamide hydrochloride]", "IC50": 430}, {"smiles": "COCCCOc1cc(C(=O)N(C(C)C)[C@H]2CNC[C@@H](CNC(=O)OCc3ccccc3)C2)ccc1OC", "note": "(racemic) [Example 43, Benzyl [((rac.)-(3S,5R)-5-{isopropyl[4-methoxy-3-(3-methoxypropoxy)benzoyl]-amino}piperidin-3-yl)methyl]carbamate hydrochloride]", "IC50": 770}, {"smiles": "COCCCOc1cc(C(=O)N(C(C)C)[C@H]2CNCC[C@@H]2c2ccccc2)ccc1OC", "note": "(racemic) [Example 45, N-Isopropyl-4-methoxy-3-(3-methoxypropoxy)-N-[(rac.)-(3R,4R)-4-phenylpiperidin-3-yl]benzamide hydrochloride]", "IC50": 410}, {"smiles": "COCCCOc1cc(C(=O)N(C(C)C)[C@H]2CNC[C@@H](COc3ccccc3-c3ccccc3)C2)ccc1OC", "note": "(racemic) [Example 46, N-{(rac.)-(3R,5S)-5-[(Biphenyl-2-yloxy)methyl]piperidin-3-yl}-N-isopropyl-4-methoxy-3-(3-methoxypropoxy)benzamide hydrochloride]", "IC50": 790}, {"smiles": "COCCCOc1cc(C(=O)N(C(C)C)[C@H]2CNC[C@@H](COc3cccc(-c4ccccc4)c3)C2)ccc1OC", "note": "(racemic) [Example 48, N-{(rac.)-(3R,5S)-5-[(Biphenyl-3-yloxy)methyl]piperidin-3-yl}-N-isopropyl-4-methoxy-3-(3-methoxypropoxy)benzamide hydrochloride]", "IC50": 620}, {"smiles": "COCCCOc1cc(C(=O)N(C(C)C)[C@H]2CNC[C@@H](COc3cccc(Oc4ccccc4)c3)C2)ccc1OC", "note": "(racemic) [Example 49, N-Isopropyl-4-methoxy-3-(3-methoxypropoxy)-N-{(rac.)-(3R,5S)-5-[(3-phenoxy-phenoxy)methyl]piperidin-3-yl}benzamide hydrochloride]", "IC50": 740}, {"smiles": "COCCCOc1cc(C(=O)N(C(C)C)[C@H]2CNC[C@@H](COc3cccc(OCc4ccccc4)c3)C2)ccc1OC", "note": "(racemic) [Example 50, hydrochloride]", "IC50": 540}, {"smiles": "COCCCOc1cc(C(=O)N(C(C)C)[C@@H]2CC[C@H](CC(=O)N(C(C)C)C3CCCCC3)NC2)ccc1OC", "note": "(racemic) [Example 51, N-((rac.)-(3R,6R)-6-{2-[Cyclohexyl(isopropyl)amino]-2-oxoethyl}piperidin-3-yl)-N-isopropyl-4-methoxy-3-(3-methoxypropoxy)benzamide hydrochloride]", "IC50": 500}, {"smiles": "COCCCOc1cc(C(=O)N(C(C)C)[C@@H]2CC[C@H](CC(=O)NC3CC3)NC2)ccc1OC", "note": "(racemic) [Example 52, N-{ (rac.)-(3R,6R)-6-[2-(Cyclopropylamino)-2-oxoethyl]piperidin-3-yl)-N-isopropyl-4-methoxy-3-(3-methoxypropoxy)benzamide hydrochloride]", "IC50": 590}, {"smiles": "COCCCOc1cc(C(=O)N(C(C)C)[C@@H]2CC[C@H](CCN(C(=O)Cc3ccccc3)C(C)C)NC2)ccc1OC", "note": "(racemic) [Example 55, N-Isopropyl-N-((rac.)-(3R,6R)-6-{2-[isopropyl(phenylacetyl)amino]ethyl}piperidin-3-yl)-4-methoxy-3-(3-methoxypropoxy)benzamide hydrochloride]", "IC50": 690}, {"smiles": "COCCCOc1cc(C(=O)N(C(C)C)[C@H]2CNC[C@H](COC(=O)NC(C)C)C2)ccc1OC", "note": "(racemic) [Example 57, ((rac.)-(3R,5R)-5-{Isopropyl[4-methoxy-3-(3-methoxypropoxy)benzoyl]amino}-piperidin-3-yl)methyl isopropylcarbamate hydrochloride]", "IC50": 830}, {"smiles": "CCN(CCc1ccccc1)C(=O)OC[C@@H]1CNC[C@H](N(C(=O)c2ccc(OC)c(OCCCOC)c2)C(C)C)C1", "note": "(racemic) [Example 58]", "IC50": 150}, {"smiles": "CCCN(CCc1ccccc1)C(=O)OC[C@@H]1CNC[C@H](N(C(=O)c2ccc(OC)c(OCCCOC)c2)C(C)C)C1", "note": "(racemic) [Example 59]", "IC50": 110}, {"smiles": "COCCCOc1cc(C(=O)N(C[C@@H]2CCNC2)C(C)C)ccc1OC", "note": "[Compound B, reference compound]", "IC50": 2300}, {"smiles": "COCCCOc1cc(C(=O)N(C(C)C)[C@@H]2CCCNC2)ccc1OC", "note": "[Example 1, N-Isopropyl-4-methoxy-3-(3-methoxypropoxy)-N-[(3R)-piperidin-3-yl]benzamide hydrochloride]", "IC50": 330}, {"smiles": "COCCCOc1cc(C(=O)N(C(C)C)[C@@H]2CCCNC2)c(C)cc1OC", "note": "[Example 27, N-Isopropyl-4-methoxy-5-(3-methoxypropoxy)-2-methyl-N-[(3R)-piperidin-3-yl]-benzamide]", "IC50": 190}, {"smiles": "COCCCOc1cc(C(=O)N(C(C)C)[C@@H]2CCCNC2)c(Cl)cc1OC", "note": "[Example 53, 2-Chloro-N-isopropyl-methoxy-5-(3-methoxypropoxy)-N-[(3R)-piperidin-3-yl]-benzamide hydrochloride]", "IC50": 220}, {"smiles": "COCCCOc1cc(C(=O)N(C(C)C)[C@@H]2CC[C@H](CCN(C(=O)CCOC)C3CC3)NC2)ccc1OC", "note": "[Example 64, N-((3R,6R)-6-{2-[Cyclopropyl(3-methoxypropanoyl)amino]ethyl}piperidin-3-yl)-N-isopropyl-4-methoxy-3-(3-methoxypropoxy)benzamide hydrochloride]", "IC50": 16.8}, {"smiles": "COCCCOc1cc(C(=O)N(C(C)C)[C@@H]2CC[C@H](CCN(C(=O)CCCO)C3CC3)NC2)ccc1OC", "note": "[Example 66, N-((3R,6R)-6-{2-[Cyclopropyl(4-hydroxybutanoyl)amino]ethyl}piperidin-3-yl)-N-isopropyl-4-methoxy-3-(3-methoxypropoxy)benzamide hydrochloride]", "IC50": 61}, {"smiles": "COCCCOc1cc(C(=O)N(C(C)C)[C@@H]2CC[C@H](CCN(C(=O)CC(C)(C)O)C3CC3)NC2)ccc1OC", "note": "[Example 67, N-((3R,6R)-6-{2-[Cyclopropyl(3-hydroxy-3-methylbutanoyl)amino]ethyl}piperidin-3-yl)-N-isopropyl-4-methoxy-3-(3-methoxypropoxy)benzamide hydrochloride]", "IC50": 12.9}, {"smiles": "COCCCOc1cc(C(=O)N(C(C)C)[C@@H]2CC[C@H](CCN(C(=O)C=C(C)C)C3CC3)NC2)ccc1OC", "note": "[Example 68, N-((3R,6R-6-{2-[Cyclopropyl(3-methyl-2-butenoyl)amino]ethyl}piperidin-3-yl)-N-isopropyl-4-methoxy-3-(3-methoxypropoxy)benzamide hydrochloride]", "IC50": 6.7}, {"smiles": "COCCCOc1cc(C(=O)N(C(C)C)[C@@H]2CC[C@H](CCN(C(=O)CC(C)(C)C(N)=O)C3CC3)NC2)ccc1OC", "note": "[Example 69, N^4-Cyclopropyl-N^4-[2-((2R,5R)-5-{isopropyl[4-methoxy-3-(3-methoxypropoxy)-benzoyl]amino}piperidin-2-yl)ethyl]-2,2-dimethylsuccinamide trifluoroacetate]", "IC50": 27.9}]}]}
